Non-standard residues stand in square brackets, D forms with d. Residues, ends and D or L forms follow the SMILES beside them. *: point of attachment. 1Nal = N[C@@H](Cc1cccc2ccccc12)C(=O)O; Cha = N[C@@H](CC1CCCCC1)C(=O)O; Decanoyl = CCCCCCCCCC(=O)*; Dap = NC[C@H](N)C(=O)O; Sar = CNCC(=O)O
What was measured:
human GHS-R1a receptor = molecular target: T1, human GHS-R1a receptor (Homo sapiens, UniProt Q92847); assay: Competitive binding studies (displacement of 125I-ghrelin); settings: for affinity for GHS-R1a compared with ghrelin: in words; for % of ghrelin binding: relative to ghrelin = 100
T1 construct: purchased Multispan, Hayward, Calif., USA; host or cells: HEK293T cells, isolated plasma membranes
Protocol: Isolated plasma membranes from the HEK293T cells with transfected human GHS-R1a receptor (Multispan, Hayward, Calif., USA) were used. […] Experiments were carried out in duplicates at least three times. Competitive binding curves were plotted using GraphPad Prism Software (San Diego, Calif., USA) while comparing the best fit for single binding sites models.

fed C57BL/6 male mice = assay: Effect of SC administered ghrelin analogs on food intake; type: in vivo; settings: for maximal effect at 5 mg/kg on food intake: SC 5 mg/kg, evaluated 480 min after administration; for ED50 (250 min after injection), effect on food intake: SC, fed mice
Protocol: All of the experiments followed the ethical guidelines for animal experiments and Czech Republic law 246/1992 and were approved by the committee for experiments with laboratory animals of the Academy of Sciences of the Czech Republic. Male C57BL/6 mice (Charles River, Germany) were housed at a temperature 22±2° C. under a daily cycle of 12/12 h light/dark (light from 6:00) with free access to water and a standard chow diet St-1 which contained […] of calories from protein, fat and carbohydrate, respectively, and its energy content was 3.4 kcal/g (Mlýn Kocanda, Praha, Czech Republic). Mice were placed into separate cages for one week before experiment, they had free access to water and food pellets. Closely before the experiment, the food pellets were removed from the cages. […] 15 min after the injection, mice were given preweighed food pellets. Food intake was monitored for 8-10 hours at 30-min intervals. Mice had free access to water during the experiment. Experiments were performed at least twice for each tested compound, each experimental group had at least 5 mice.
Data from food intake experiments were analyzed by one-way ANOVA followed by Dunnett's post-hoc test using GraphPad Prism Software (San Diego, Calif., USA), P<0.05 was considered statistically significant. ED50 values were calculated using GraphPad Prism Software as the dose of the tested compound required to elicit half-maximal effect at 250 min after administration of the corresponding compound.
Food intake was monitored for […] after administration of the compounds. ED50 values were determined 250 min after administration. Maximal effect on food intake was evaluated […] after administration of the compounds at a dose of 5 mg/kg of body weight. NT—not tested.

T1 sequence (Q92847 whole entry): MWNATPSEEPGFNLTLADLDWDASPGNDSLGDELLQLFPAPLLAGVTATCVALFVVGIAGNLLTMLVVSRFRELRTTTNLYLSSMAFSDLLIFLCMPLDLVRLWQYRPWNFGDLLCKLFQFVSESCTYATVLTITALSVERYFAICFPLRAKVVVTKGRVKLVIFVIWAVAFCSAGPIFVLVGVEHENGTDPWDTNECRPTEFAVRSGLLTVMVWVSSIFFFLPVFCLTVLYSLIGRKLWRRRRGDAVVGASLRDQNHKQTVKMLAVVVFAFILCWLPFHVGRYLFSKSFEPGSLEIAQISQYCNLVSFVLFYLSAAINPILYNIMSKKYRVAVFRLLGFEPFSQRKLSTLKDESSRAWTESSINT

| SMILES | affinity for GHS-R1a compared with ghrelin (human GHS-R1a receptor) | % of ghrelin binding (human GHS-R1a receptor) [%] | maximal effect at 5 mg/kg on food intake (fed C57BL/6 male mice) | ED50 (250 min after injection), effect on food intake (fed C57BL/6 male mice) [mg/kg] |
| --- | --- | --- | --- | --- |
| CCCCCCCCCC(=O)NC[C@H](NC(=O)[C@H](CO)NC(=O)CNC)C(=O)N[C@@H](Cc1cccc2ccccc12)C(=O)N[C@@H](CC(C)C)C(=O)N[C@@H](CO)C(=O)N1CCC[C@H]1C(=O)N[C@@H](CCC(=O)O)C(=O)N[C@@H](Cc1c[nH]cn1)C(=O)N[C@@H](CCC(N)=O)C(=O)N[C@@H](CCCCN)C(=O)N[C@@H](C)C(=O)N[C@@H](CCC(N)=O)C(=O)N[C@@H](CCC(N)=O)C(=O)N[C@@H](CCCNC(=N)N)C(=O)N[C@@H](CCCCN)C(=O)N[C@@H](CCC(=O)O)C(=O)N[C@@H](CO)C(=O)N[C@@H](CCCCN)C(=O)N[C@@H](CCCCN)C(=O)N1CCC[C@H]1C(=O)N1CCC[C@H]1C(=O)N[C@@H](C)C(=O)N[C@@H](CCCCN)C(=O)N[C@@H](CC(C)C)C(=O)N[C@@H](CCC(N)=O)C(=O)N1CCC[C@H]1C(=O)N[C@@H](CCCNC(=N)N)C(=O)O [Analog 3] (H-[Sar]S[Dap](Decanoyl)[1Nal]LSPEHQKAQQRKESKKPPAKLQPR-OH; N-terminus and C-terminus assumed) | higher affinities for GHS-R1a than ghrelin | 176 | 220.3 % of Dpr^3ghr | 0.64 |
| CCCCCCCCCC(=O)NC[C@H](NC(=O)[C@H](CO)NC(=O)CNC)C(=O)N[C@@H](CC1CCCCC1)C(=O)N[C@@H](CC(C)C)C(=O)N[C@@H](CO)C(=O)N1CCC[C@H]1C(=O)N[C@@H](CCC(=O)O)C(=O)N[C@@H](Cc1c[nH]cn1)C(=O)N[C@@H](CCC(N)=O)C(=O)N[C@@H](CCCCN)C(=O)N[C@@H](C)C(=O)N[C@@H](CCC(N)=O)C(=O)N[C@@H](CCC(N)=O)C(=O)N[C@@H](CCCNC(=N)N)C(=O)N[C@@H](CCCCN)C(=O)N[C@@H](CCC(=O)O)C(=O)N[C@@H](CO)C(=O)N[C@@H](CCCCN)C(=O)N[C@@H](CCCCN)C(=O)N1CCC[C@H]1C(=O)N1CCC[C@H]1C(=O)N[C@@H](C)C(=O)N[C@@H](CCCCN)C(=O)N[C@@H](CC(C)C)C(=O)N[C@@H](CCC(N)=O)C(=O)N1CCC[C@H]1C(=O)N[C@@H](CCCNC(=N)N)C(=O)O [Analog 5] (H-[Sar]S[Dap](Decanoyl)[Cha]LSPEHQKAQQRKESKKPPAKLQPR-OH; N-terminus and C-terminus assumed) | higher affinities for GHS-R1a than ghrelin | 110 | 204.5 % of Dpr^3ghr | 1.02 |
| CCCCCCCCCC(=O)NC[C@H](NC(=O)[C@H](CO)NC(=O)CNC)C(=O)N[C@@H](Cc1ccccc1)C(=O)N[C@@H](CC(C)C)C(=O)N[C@@H](CO)C(=O)N1CCC[C@H]1C(=O)N[C@@H](CCC(=O)O)C(=O)N[C@@H](Cc1c[nH]cn1)C(=O)N[C@@H](CCC(N)=O)C(=O)N[C@@H](CCCCN)C(=O)N[C@@H](C)C(=O)N[C@@H](CCC(N)=O)C(=O)N[C@@H](CCC(N)=O)C(=O)N[C@@H](CCCNC(=N)N)C(=O)N[C@@H](CCCCN)C(=O)N[C@@H](CCC(=O)O)C(=O)N[C@@H](CO)C(=O)N[C@@H](CCCCN)C(=O)N[C@@H](CCCCN)C(=O)N1CCC[C@H]1C(=O)N1CCC[C@H]1C(=O)N[C@@H](C)C(=O)N[C@@H](CCCCN)C(=O)N[C@@H](CC(C)C)C(=O)N[C@@H](CCC(N)=O)C(=O)N1CCC[C@H]1C(=O)N[C@@H](CCCNC(=N)N)C(=O)O [Analog 1] | higher affinities for GHS-R1a than ghrelin | 183 | 218.8 % of Dpr^3ghr | 3.90 |

From patent publication US20170044230A1 (USTAV ORGANICKE CHEMIE A BIOCHEMIE AV CR, V.V.I., priority 2014, published 2017)
